Results reported in PubChem BioAssay (NCI).
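Following 48 hours of exposure in 96-well plates, responses at five concentrations were used to interpolate endpoints linearly. Abbreviation: GI50, concentration required for 50% inhibition of growth. TGI marks complete inhibition of growth.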

What was measured:
Assay in all cases: NCI-60 cell line screen, 48 h
[1] = tested on: SNB-19 CNS
[2] = tested on: SF-268 CNS
[3] = tested on: HOP-62 NSCLC
[4] = tested on: HOP-92 NSCLC
[5] = tested on: TK-10 renal
[6] = tested on: A549 NSCLC
[7] = tested on: HCC-2998 colon
[8] = tested on: K-562 leukemia
[9] = tested on: MDA-MB-435
[10] = tested on: SNB-75 CNS
[11] = tested on: SK-OV-3 ovarian
[12] = tested on: SF-539 CNS
[13] = tested on: SW-620 colon
[14] = tested on: SF-295 CNS
[15] = tested on: HCT-15 colon
[16] = tested on: SR leukemia
[17] = tested on: CAKI-1 renal
[18] = tested on: SK-MEL-5 melanoma
[19] = tested on: SK-MEL-2 melanoma
[20] = tested on: HL-60(TB) leukemia
[21] = tested on: MDA-MB-468 breast
[22] = tested on: OVCAR-4 ovarian
[23] = tested on: BT-549 breast
[24] = tested on: NCI-H522 lung
[25] = tested on: DU-145 prostate
[26] = tested on: 786-0 renal
[27] = tested on: A498 renal
[28] = tested on: UACC-62 melanoma
[29] = tested on: MDA-MB-231 breast

## CSc1ccc(NC(=O)c2ccc3nnn(/C(C#N)=C/c4ccccn4)c3c2)cc1
[1]
  GI50: 2740 nM
  TGI: 8650 nM
[2]
  GI50: 2470 nM
  TGI: 7060 nM
[3]
  GI50: 2210 nM
  TGI: 5630 nM
[4]
  GI50: 1500 nM
  TGI: 3200 nM
[5]
  GI50: 1570 nM
  TGI: 2980 nM
[6]
  GI50: 2910 nM
  TGI: 11000 nM
[7]
  GI50: 1650 nM
  TGI: 3010 nM
[8]
  GI50: 1230 nM
  TGI: > 100000 nM
[9]
  GI50: 1460 nM
  TGI: 2920 nM
[10]
  GI50: 1820 nM
  TGI: 4380 nM
[11]
  GI50: 5490 nM
  TGI: 18000 nM
[12]
  GI50: 1610 nM
  TGI: 2970 nM
[13]
  GI50: 763 nM
  TGI: 2140 nM
[14]
  GI50: 1880 nM
  TGI: 4660 nM
[15]
  GI50: 1040 nM
  TGI: 2300 nM
[16]
  GI50: 1650 nM
  TGI: 34400 nM
[17]
  GI50: 1200 nM
  TGI: 2460 nM
[18]
  GI50: 1640 nM
  TGI: 3050 nM
[19]
  GI50: 1710 nM
  TGI: 3220 nM
[20]
  GI50: 1590 nM
  TGI: 7080 nM
[21]
  GI50: 904 nM
  TGI: 2280 nM
[22]
  GI50: 1640 nM
  TGI: 3010 nM
[23]
  GI50: 1610 nM
  TGI: 3130 nM
[24]
  GI50: 1250 nM
  TGI: 2650 nM
[25]
  GI50: 1630 nM
  TGI: 2990 nM
[26]
  GI50: 1570 nM
  TGI: 3050 nM
[27]
  GI50: 9470 nM
  TGI: 21400 nM
[28]
  GI50: 1610 nM
  TGI: 3050 nM
[29]
  GI50: 1750 nM
  TGI: 3210 nM
